For eight compounds, IC50 results are on record in BindingDB's records for doi:10.1021/jm9606608 (Boehringer Ingelheim (Canada), 1997).

Each structure is given as a SMILES string.

The target in one assay is T1, Dimer of Gag-Pol polyprotein [489-587] (Human immunodeficiency virus 1, UniProt P12497).
T1 construct: 489-587
The experiment in a line: Protease Inhibition Assay. The settings on record: pH 5.5; 37 °C. Here is the method:
(§1) Sensitivity of HIV-1 protease activity to protease inhibitors was determined by a peptide substrate cleavage assay. Cleavage products and substrate were separated by reversed-phase HPLC on a Perkin-Elmer 3 X 3CR C8 column.
Take `CCC(CC)NC(=O)C[C@@H](C(=O)NC[C@@H](O)[C@H](Cc1ccccc1)NC(=O)[C@@H](NC(=O)c1ccc2ccccc2n1)C(C)O)C(C)(C)C` (stereo partly drawn) [(2R)-2-tert-butyl-N-[(2R,3S)-2-hydroxy-3-[(2S,3R)-3-hydroxy-2-(quinolin-2-ylformamido)butanamido]-4-phenylbutyl]-N'-(pentan-3-yl)butanediamide]: the IC50 (in general, the concentration needed to halve the response being measured) turned out to be 3.6 nM.
`CCC(CC)NC(=O)C[C@@H](C(=O)NC[C@@H](O)[C@H](Cc1ccccc1)NC(=O)[C@@H](NC(=O)c1cnc2ccccc2n1)C(C)O)C(C)(C)C` (stereo partly drawn) [(2R)-2-tert-butyl-N-[(2R,3S)-2-hydroxy-3-[(2S,3R)-3-hydroxy-2-(quinoxalin-2-ylformamido)butanamido]-4-phenylbutyl]-N'-(pentan-3-yl)butanediamide]: the IC50 was 3 nM.
Still for that read-out and setting: under `CC(C)[C@H](NC(=O)OCc1ccccc1)C(=O)N[C@@H](Cc1ccccc1)[C@H](O)CNC(=O)C1CCCCC1C(=O)NC(C)(C)C` (stereo partly drawn) [benzyl N-[(1S)-1-{[(2S,3R)-4-{[2-(tert-butylcarbamoyl)cyclohexyl]formamido}-3-hydroxy-1-phenylbutan-2-yl]carbamoyl}-2-methylpropyl]carbamate] stands 140 nM; under `CCC(CC)NC(=O)C[C@@H](C(=O)NC[C@@H](O)[C@H](Cc1ccccc1)NC(=O)[C@@H](NC(=O)OCc1ccccc1)C(C)O)C(C)(C)C` (stereo partly drawn) [benzyl N-[(1S,2S)-1-{[(2S,3R)-4-[(2R)-2-tert-butyl-N-(pentan-3-yl)butanediamido]-3-hydroxy-1-phenylbutan-2-yl]carbamoyl}-2-hydroxypropyl]carbamate], 8.2 nM.

In a further assay the target is T2, Dimer of Gag-Pol polyprotein [514-612] (Human immunodeficiency virus 2, UniProt P04584).
T2 construct: 514-612
T2 sequence (P04584 whole entry): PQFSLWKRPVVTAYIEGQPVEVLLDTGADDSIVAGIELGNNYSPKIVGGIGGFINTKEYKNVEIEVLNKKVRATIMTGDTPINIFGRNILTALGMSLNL
The experiment in a line: Protease Inhibition Assay. Conditions: pH 5.5; 37 °C. The method, then:
as §1
Turning to `CCC(CC)NC(=O)C[C@@H](C(=O)NC[C@@H](O)[C@H](Cc1ccccc1)NC(=O)[C@@H](NC(=O)c1ccc2ccccc2n1)C(C)C)C(C)(C)C` [(2R)-2-tert-butyl-N-[(2R,3S)-2-hydroxy-3-[(2S)-3-methyl-2-(quinolin-2-ylformamido)butanamido]-4-phenylbutyl]-N'-(pentan-3-yl)butanediamide], the concentration for half-maximal inhibition (IC50) amounted to 42 nM.
Same read-out and setting: under `CCC(CC)NC(=O)C[C@@H](C(=O)NC[C@@H](O)[C@H](Cc1ccccc1)NC(=O)[C@@H](NC(=O)c1cnc2ccccc2n1)C(C)O)C(C)(C)C` (stereo partly drawn) [(2R)-2-tert-butyl-N-[(2R,3S)-2-hydroxy-3-[(2S,3R)-3-hydroxy-2-(quinoxalin-2-ylformamido)butanamido]-4-phenylbutyl]-N'-(pentan-3-yl)butanediamide] stands 135 nM.
Turning to `CCC(CC)NC(=O)C[C@@H](C(=O)NC[C@@H](O)[C@H](Cc1ccccc1)NC(=O)[C@H](CC(N)=O)NC(=O)c1cnc2ccccc2n1)C(C)(C)C` [(2S)-N-[(2S,3R)-4-[(2R)-2-tert-butyl-N-(pentan-3-yl)butanediamido]-3-hydroxy-1-phenylbutan-2-yl]-2-(quinoxalin-2-ylformamido)butanediamide], the concentration for half-maximal inhibition (IC50) was 6.3 nM.
Still for that read-out and setting: under `CCC(CC)NC(=O)C[C@@H](C(=O)NC[C@@H](O)[C@H](Cc1ccccc1)NC(=O)[C@@H](NC(=O)c1cnc2ccccc2n1)C(C)C)C(C)(C)C` [(2R)-2-tert-butyl-N-[(2R,3S)-2-hydroxy-3-[(2S)-3-methyl-2-(quinoxalin-2-ylformamido)butanamido]-4-phenylbutyl]-N'-(pentan-3-yl)butanediamide] stands 38 nM; under `CCC(CC)NC(=O)C[C@@H](C(=O)NC[C@@H](O)[C@H](Cc1ccccc1)NC(=O)[C@H](CC(N)=O)NC(=O)c1ccc2ccccc2n1)C(C)(C)C` [(2S)-N-[(2S,3R)-4-[(2R)-2-tert-butyl-N-(pentan-3-yl)butanediamido]-3-hydroxy-1-phenylbutan-2-yl]-2-(quinolin-2-ylformamido)butanediamide], 6.7 nM.
